Here are results for 29 compounds from ChEMBL document CHEMBL4673288, “Structure-activity relationship of novel acridone derivatives as antiproliferative agents” (Bioorg Med Chem, 2021).

One assay concerns HCT-116. As to the kind of experiment: Antiproliferative activity against human HCT-116 cells assessed as reduction in cell viability incubated for 72 hrs by SRB assay. It counts as functional, cell-based. The following applies: HCT-116, 72 h.
In the next assay the test system is K562. The assay can be described thus: Antiproliferative activity against human K562 cells assessed as reduction in cell viability incubated for 48 hrs by MTT assay. To be noted: K562, 48 h. Type of assay: functional, cell-based.
For the next assay, the system named is SW480. As to the kind of experiment: Antiproliferative activity against human SW480 cells assessed as reduction in cell viability incubated for 72 hrs by SRB assay. To be noted: SW480, 72 h. Type of assay: functional, cell-based.
Assay [1] concerns the target DNA topoisomerase 2-alpha (Homo sapiens) (UniProt P11388). As to the kind of experiment: Inhibition of recombinant human topoisomerase 2 alpha-mediated relaxation of supercoiled pBR322 DNA at 200 uM incubated for 30 mins by ethidium bromide staining based agarose gel electrophoresis method.
The next assay concerns HeLa. The assay can be described thus: Antiproliferative activity against human HeLa cells assessed as reduction in cell viability incubated for 72 hrs by SRB assay. Type of assay: functional, cell-based.
The subject of the next assay is HepG2. As to the kind of experiment: Antiproliferative activity against human HepG2 cells assessed as reduction in cell viability incubated for 48 hrs by MTT assay. It counts as functional, cell-based. To be noted: HepG2, 48 h.

The source made the active and inactive calls. The rule behind the calls is not given here.

Chain of DNA topoisomerase 2-alpha (Homo sapiens) (P11388 whole entry): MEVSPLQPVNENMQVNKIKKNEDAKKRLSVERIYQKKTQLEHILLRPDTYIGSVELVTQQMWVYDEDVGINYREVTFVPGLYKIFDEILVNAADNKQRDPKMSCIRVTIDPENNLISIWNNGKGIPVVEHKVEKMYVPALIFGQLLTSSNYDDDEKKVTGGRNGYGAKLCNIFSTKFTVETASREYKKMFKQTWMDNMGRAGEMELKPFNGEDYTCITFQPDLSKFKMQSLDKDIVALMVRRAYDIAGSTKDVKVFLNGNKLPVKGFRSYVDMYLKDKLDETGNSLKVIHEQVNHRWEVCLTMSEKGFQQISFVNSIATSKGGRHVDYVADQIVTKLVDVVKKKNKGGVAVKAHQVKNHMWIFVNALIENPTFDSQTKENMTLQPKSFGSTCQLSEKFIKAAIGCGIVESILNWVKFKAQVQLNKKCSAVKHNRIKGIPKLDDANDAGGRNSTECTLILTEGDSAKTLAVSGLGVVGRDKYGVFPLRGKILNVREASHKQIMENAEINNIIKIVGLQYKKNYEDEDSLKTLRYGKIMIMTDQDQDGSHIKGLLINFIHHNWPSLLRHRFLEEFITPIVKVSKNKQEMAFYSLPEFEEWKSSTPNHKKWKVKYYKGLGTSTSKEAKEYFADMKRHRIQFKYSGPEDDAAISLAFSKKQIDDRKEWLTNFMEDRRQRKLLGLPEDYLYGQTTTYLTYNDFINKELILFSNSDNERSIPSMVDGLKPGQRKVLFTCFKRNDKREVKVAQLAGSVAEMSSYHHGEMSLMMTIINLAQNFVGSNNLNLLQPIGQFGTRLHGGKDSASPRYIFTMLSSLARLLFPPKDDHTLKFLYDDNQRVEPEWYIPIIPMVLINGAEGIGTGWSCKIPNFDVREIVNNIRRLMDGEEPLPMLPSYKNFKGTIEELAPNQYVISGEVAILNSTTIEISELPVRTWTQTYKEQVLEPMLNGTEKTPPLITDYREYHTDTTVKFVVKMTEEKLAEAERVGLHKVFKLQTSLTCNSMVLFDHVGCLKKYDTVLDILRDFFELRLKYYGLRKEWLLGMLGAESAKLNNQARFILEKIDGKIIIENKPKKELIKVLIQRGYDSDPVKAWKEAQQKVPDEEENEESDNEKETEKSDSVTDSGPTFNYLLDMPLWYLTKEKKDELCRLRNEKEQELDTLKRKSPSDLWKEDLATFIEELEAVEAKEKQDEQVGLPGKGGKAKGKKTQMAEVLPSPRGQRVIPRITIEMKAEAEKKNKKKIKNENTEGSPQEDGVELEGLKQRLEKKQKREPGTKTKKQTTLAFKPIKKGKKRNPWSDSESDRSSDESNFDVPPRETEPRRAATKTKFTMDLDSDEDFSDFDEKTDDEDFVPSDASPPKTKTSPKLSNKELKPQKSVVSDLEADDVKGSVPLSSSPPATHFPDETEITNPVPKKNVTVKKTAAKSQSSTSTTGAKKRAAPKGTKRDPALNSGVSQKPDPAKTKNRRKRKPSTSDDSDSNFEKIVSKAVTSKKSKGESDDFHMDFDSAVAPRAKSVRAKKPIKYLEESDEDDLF

Consider `COc1cc([C@@H]2c3cc4c(cc3[C@@H](O[C@@H]3O[C@@H]5CO[C@@H](C)O[C@H]5[C@H](O)[C@H]3O)[C@H]3COC(=O)[C@H]23)OCO4)cc(OC)c1O` [ETOPOSIDE], for which the half-maximal inhibitory concentration (IC50) is 1.7 µM in the assay on HCT-116, 10.8 µM in the assay with K562 and 0.6 µM with SW480. Besides, the inhibition result in assay [1] was “Active”.

Take `COc1ccc(Nc2ccc([N+](=O)[O-])c3[nH]c4ccc(O)cc4c(=O)c23)cc1`: the IC50 with HCT-116, in the assay with SW480 and in the assay on HeLa was greater than 20 µM throughout. In addition, the inhibition result in assay [1] is “Active”.

As for `COc1ccc2[nH]c3c([N+](=O)[O-])ccc(NCCCN4CCN(C)CC4)c3c(=O)c2c1`, the half-inhibitory concentration (IC50) with HCT-116 worked out at 1 µM; with SW480, 2 µM; in the assay on HeLa it was 0.9 µM. Also, the inhibition entry in assay [1] is “Active”.

Consider `CCCCCCCCCCCOc1ccc(OCc2ccc(C(=O)N[C@@H](CCC(=O)O)C(=O)O)cc2)c2c1C(=O)c1ccccc1C2=O`, for which the IC50 in the assay with K562 came to 0.77 µM.

On to `O=c1c2cc(O)ccc2[nH]c2c([N+](=O)[O-])ccc(Nc3ccc(O)cc3)c12`, for which the IC50 in the assay with HCT-116, in the assay on SW480 and in the assay on HeLa was greater than 20 µM in each case. Besides, the inhibition entry in assay [1] was “Active”.

For `CN1CCN(Cc2ccc(Nc3ccc([N+](=O)[O-])c4[nH]c5ccc(O)cc5c(=O)c34)cc2)CC1`, the values for the half-inhibitory concentration (IC50) with HCT-116, in the assay with SW480 and in the assay on HeLa were 0.4 µM, 0.3 µM and 0.6 µM, respectively. Besides, the inhibition result in assay [1] was “Active”.

In the case of `COc1cc(Nc2ccc([N+](=O)[O-])c3[nH]c4ccc(O)cc4c(=O)c23)cc(OC)c1`, the IC50 in the assay on HCT-116, with SW480 and with HeLa was greater than 20 µM throughout. Also, in assay [1], the inhibition entry was “Active”.

Turning to `O=C1c2c(O)ccc(O)c2C(=O)c2c(NCCNCCO)ccc(NCCNCCO)c21` [MITOXANTRONE], the values for the concentration for half-maximal inhibition (IC50) in the assay on HepG2 and with K562 were 15.3 µM and 2.35 µM, respectively.

On to `O=c1c2cc(O)ccc2[nH]c2c([N+](=O)[O-])ccc(Nc3ccc(CN4CCCCC4)cc3)c12`, for which the 50% inhibitory concentration (IC50) was determined as 2.5 µM in the assay with HCT-116, 2.3 µM with SW480 and 1.1 µM in the assay with HeLa. The inhibition entry in assay [1] is “Active”.

With `COc1ccc2[nH]c3c(N)ccc(Nc4ccc(-n5cncn5)cc4)c3c(=O)c2c1`, the results for the half-inhibitory concentration (IC50) in the assay with HCT-116, in the assay on SW480 and in the assay on HeLa were greater than 20 µM, 15.7 µM and 16.8 µM, respectively. In addition, the inhibition entry in assay [1] was “Active”.

With `O=c1c2cc(O)ccc2[nH]c2c([N+](=O)[O-])ccc(NCc3cccs3)c12`, the IC50 with HCT-116, in the assay on SW480 and in the assay with HeLa was greater than 20 µM throughout. Moreover, in assay [1], the inhibition result is “inactive”.

`COc1ccc2[nH]c3c([N+](=O)[O-])ccc(Nc4ccc(O)cc4)c3c(=O)c2c1`: the IC50 in the assay with HCT-116 was found to be 11.8 µM; with SW480, 17.1 µM; in the assay with HeLa it was 7.5 µM. Moreover, the inhibition result in assay [1] is “Active”.

For the compound `O=c1c2cc(O)ccc2[nH]c2c([N+](=O)[O-])ccc(Nc3ccc(Cn4cncn4)cc3)c12`, the values for the half-inhibitory concentration (IC50) in the assay on HCT-116, in the assay on SW480 and with HeLa were 3.9 µM, 2.3 µM and 7.6 µM, respectively. Moreover, the inhibition entry in assay [1] is “Active”.

With `O=c1c2cc(O)ccc2[nH]c2c([N+](=O)[O-])ccc(NCc3ccsc3)c12`, the IC50 in the assay with HCT-116, in the assay with SW480 and in the assay on HeLa was greater than 20 µM each time. For the same compound, the inhibition entry in assay [1] was “Active”.

On to `CN1CCN(CCNc2ccc([N+](=O)[O-])c3[nH]c4ccc(O)cc4c(=O)c23)CC1`, for which the IC50 with HCT-116 came out at 0.7 µM; in the assay with SW480 it was 1.2 µM; with HeLa it was 1.2 µM. Further, in assay [1], the inhibition result is “Active”.

Regarding `O=c1c2cc(O)ccc2[nH]c2c([N+](=O)[O-])ccc(NCc3cccnc3)c12`, the IC50 in the assay on HCT-116, with SW480 and with HeLa was greater than 20 µM each time. For the same compound, in assay [1], the inhibition entry is “inactive”.

For the compound `CCCCCCCCCCCCOc1ccc(OCCCCNCCCCNCCCNCCC)c2c1C(=O)c1ccccc1C2=O`, the IC50 in the assay on HepG2 was 8.8 µM.

For the compound `O=c1c2cc(O)ccc2[nH]c2c([N+](=O)[O-])ccc(NCc3ccco3)c12`, the figures for the half-maximal inhibitory concentration (IC50) in the assay on HCT-116, in the assay on SW480 and in the assay with HeLa were greater than 20 µM, 15.5 µM and 12.2 µM, respectively. For the same compound, the inhibition entry in assay [1] is “Active”.

Regarding `COc1ccc2[nH]c3c(N)ccc(Nc4ccc(OC)c(OC)c4)c3c(=O)c2c1`, the half-inhibitory concentration (IC50) worked out at 4.6 µM in the assay on HCT-116, 8.6 µM with SW480 and 6.2 µM with HeLa.

As to `COc1ccc2[nH]c3c([N+](=O)[O-])ccc(Nc4ccc(CN5CCCCC5)cc4)c3c(=O)c2c1`, the half-maximal inhibitory concentration (IC50) with HCT-116 was 5.7 µM; with SW480 it was 8.8 µM; in the assay with HeLa, 1.7 µM. For the same compound, the inhibition result in assay [1] is “Active”.

Take `CN1CCN(c2ccc(Nc3ccc([N+](=O)[O-])c4[nH]c5ccc(O)cc5c(=O)c34)cc2)CC1`: the figures for the IC50 with HCT-116, in the assay with SW480 and with HeLa were 1.5 µM, 1.1 µM and 4.8 µM, respectively. The inhibition entry in assay [1] was “Active”.

With `O=c1c2cc(O)ccc2[nH]c2c([N+](=O)[O-])ccc(NCCc3cccc(C(F)(F)F)c3)c12`, the IC50 in the assay on HCT-116 was greater than 20 µM; with SW480 it was 11.7 µM; with HeLa it was 7.6 µM.

With `COc1ccc(CCNc2ccc([N+](=O)[O-])c3[nH]c4ccc(F)cc4c(=O)c23)cc1OC`, the IC50 is greater than 20 µM in the assay with HCT-116, 8.8 µM in the assay on SW480 and 4.5 µM in the assay on HeLa.

As to `COc1ccc(CCNc2ccc(N)c3[nH]c4ccc(F)cc4c(=O)c23)cc1OC`, the IC50 in the assay with HCT-116 was 17.5 µM; in the assay with SW480 it was 11.3 µM; in the assay on HeLa, 12.3 µM.

For the compound `CCCCCCCCCCCOc1ccc(OCc2ccc(C(=O)N[C@@H](Cc3ccccc3)C(=O)O)cc2)c2c1C(=O)c1ccccc1C2=O`, the concentration for half-maximal inhibition (IC50) in the assay on K562 came out at 1.82 µM.

Take `COc1cccc(Nc2ccc([N+](=O)[O-])c3[nH]c4ccc(O)cc4c(=O)c23)c1`: the IC50 in the assay with HCT-116, in the assay with SW480 and with HeLa was greater than 20 µM each time. Further, the inhibition result in assay [1] is “Active”.

Consider `COc1ccc(Nc2ccc([N+](=O)[O-])c3[nH]c4ccc(O)cc4c(=O)c23)cc1OC`, for which the half-inhibitory concentration (IC50) with HCT-116, in the assay with SW480 and with HeLa was greater than 20 µM each time. Further, the inhibition entry in assay [1] is “inactive”.

In the case of `COc1ccc(Nc2ccc(N)c3[nH]c4ccc(OC)cc4c(=O)c23)cc1`, the IC50 was greater than 12.5 µM with HCT-116, greater than 25 µM with SW480 and greater than 12.5 µM with HeLa.

In the case of `COc1ccc2[nH]c3c([N+](=O)[O-])ccc(NCCc4ccc(O)c(O)c4)c3c(=O)c2c1`, the IC50 with HCT-116 was greater than 20 µM; in the assay with SW480 it was 6.5 µM; with HeLa it was greater than 20 µM.
